The values that follow come from patent publication US20180353507A1, “METHODS OF PREVENTING OR TREATING HYPOGLYCEMIA BY ADMINISTERING A GPR119 AGONIST” (Merck Sharp & Dohme Corp., priority 2015, published 2018).

One assay relates to pancreas. The assay is described as follows: In situ rat pancreatic perfusion, insulin and glucagon release. Set-up: species or system Wistar Han rats. The note with it: 500 nM compound, vs vehicle. As for the experimental part:
Male Wistar Han rats were purchased from Charles River Laboratories Inc. at 6 weeks of age and housed 2 per cage for two weeks with food and water ad libitum. In Situ Pancreatic perfusions were performed when the rats were eight weeks old. All procedures were performed in accordance with relevant guidelines and regulations. Food was removed 4-5 hours prior to surgery. For each surgery, the rat was fully sedated with 100 mg/kg intraperitoneal (i.p.) Na-pentobarbital (NEMBUTAL) anesthesia. The depth of anesthesia was determined by a “paw pinch” test. Surgery was not initiated until the rat was fully sedated. If necessary an additional 50 mg/kg i.p. dose (50% of original) of NEMBUTAL was given. The peritoneal cavity was opened and coeliac artery was ligated dorsally. […] cannula was inserted into coeliac artery for perfusant afflux. The left gastric artery was ligated at the esophagus-stomach junction. The hepatic portal vein was ligated dorsally and cannulated ventrally (25G cannula; towards liver) for perfusant efflux. Immediately following the surgery, the rat was placed into the perfusion chamber and perfused at 3 ml/minute with modified KREBS-RINGER buffers [see. […] et al. 2012 Reproductive biology and endocrinology 10:110]. The buffers and perfusion chamber were kept warm at 37° C. and saturated with an O^2/CO^2 gases mixture. The buffers were 2 mM or 16 mM glucose and contained either vehicle (0.1%/DMSO) or Compound A (see Table 1) or 30 mM L-Arginine. The perfusant was collected by automated fraction collector at one sample per minute rate with about 90% rate of buffer recovery. Samples were frozen at -70° C. and later analyzed for total insulin and glucagon content. For the buffers: First the following mixture was prepared in water containing 10% NaCl (1.19M), 5% KCL (94 mM), 10% […] (250 mM), 5% CaCl2-2H2O (50 mM), 5% MgSO4-7H2O (24 mM), and 5% KH2PO4 (24 mM). The buffer was then oxygenated for 20 minutes, and 3% dextran and 0.2% BSA (insulin free) were added. Glucose was added from 1M stock solution as needed. FIGS. 4A-B illustrate a pancreatic perfusion assay in Wistar Han rats, and insulin (left panel) and glucagon (right panel) release measurements. As shown (lines with open circles), a basal level of insulin and a fair amount of glucagon were secreted from pancreas when perfused with low glucose (6 mM glucose). […] Application of GPR119 agonist (500 nM Compound A, lines with solid circles) enhanced both basal and glucose-stimulated pancreas insulin secretion (left panel).

A further assay has as its system male Wistar Han rats. The assay is described as follows: Hyperinsulinemic-hypoglycemia clamp study. The note with it: for change of systemic blood glucose level during clamp / glucose infusion rate needed to maintain blood glucose at 50 mg/dl: 60 minutes prior to clamp; for change of systemic blood glucose level during clamp: FIG. 6A; for glucose infusion rate needed to maintain blood glucose at 50 mg/dl: FIG. 6B; for systemic epinephrine release at hypoglycemic status: FIG. 7C; for c-peptide release: FIG. 7D. The assay is classed as in vivo. The procedure:
FIG. 5 illustrates a scheme and time-course depiction of the hyperinsulinemic-hypoglycemia clamp study performed in rats as described in EXAMPLE 4. Rats were recovered from surgery stress and pre-treated with vehicle, GLIBENCLAMIDE (5 mpk), or GPR119 agonist Compound B (10 mpk) 60 minutes prior to initiation of the clamp. From time zero, rats received an insulin bolus injection initially, then were simultaneously infused with insulin at a steady rate and glucose at an adjusted rate based on the plasma glucose level measured at every 10 minutes. Vertical bars indicate the time points when the blood specimens were collected for measurements of insulin, C-peptide, glucagon, and epinephrine/norepinephrine (0 min, 30 min, 60 min, 90 min and 120 min).
A hyperinsulinemic-hypoglycemia clamp study was performed in male Wistar Han rats as shown in FIG. 5 and described below to explore the potential roles of GPR119 agonists in regulating glucagon secretion at the hypoglycemic status. Three groups were studied, those treated with: (1) vehicle, (2) GPR119 agonist, Compound B, C, F, H, I, M and V (see Table 1 and Table 2), at 10, 30, 100, 100, 100, 30 and 30 mpk, respectively, or (3) GLIBENCLAMIDE, a sulfonylurea insulin secretagogue known to cause hypoglycemia, at 5 mpk. Blood samples (100-150 μl) were collected for insulin, C-peptide, glucagon, and epinephrine/norepinephrine measurements. Terminal bleeding was analyzed for PK measurement.
FIGS. 5, 6A-B, 7A-D and 8A-L illustrate the hyperinsulinemic-hypoglycemia clamp study of EXAMPLE 4. FIG. 5 is a scheme and time-course depiction of the hyperinsulinemic-hypoglycemia clamp study performed in rats. Vertical bars indicate the time points when the rats were infused with compound, or insulin/glucose, or blood specimens were collected for measurements of insulin, C-peptide, glucagon, and epinephrine/norepinephrine. After recovered from surgery stress, rats were pre-treated with vehicle, GLIBENCLAMIDE (5 mpk), or GPR119 agonist Compound B (10 mpk) 60 minutes prior to initiation of the clamp. From time zero, rats received an initial insulin bolus injection followed by simultaneous infusion of insulin at a steady rate and glucose at an adjusted rate. Rat plasma glucose levels (FIG. 6A) were monitored periodically, and the glucose infusion rate (FIG. 6B) was adjusted so that the blood glucose level would be maintained at 50 mg/dl.

Setting [1] is: high glucose (12 mM glucose) perfusion.
Setting [2] is: low glucose (6 mM glucose) perfusion.
Where [3] appears, read: 30 mpk, hypoglycemic status (50 mg/dL), FIGS. 8A-L.
Setting [4] is: 100 mpk, hypoglycemic status (50 mg/dL), FIGS. 8A-L.

Take `CC1(OC(=O)C2CC3COCC(C2)C3Oc2ncnc(Nc3ccc(C#N)cc3Cl)c2F)CC1` (centres unmarked) [Compound A]: in the assay with pancreas (setting [1]), the “glucose-repressed glucagon secretion from pancreas” value is given as “did not affect” and the “glucose-stimulated pancreas insulin secretion” value is reported as “enhanced”. Moreover, in the assay with pancreas (setting [2]), the “basal glucagon release from pancreas” value is “elevated basal glucagon release” and the “basal pancreas insulin secretion” value is recorded as “enhanced”.

For the compound `COCc1cnc(N2CCC([C@H]3C[C@H]3CCOc3cc(F)c(CC(=O)N4CCC4)c(F)c3)CC2)nc1` [Compound B], in the assay with male Wistar Han rats (10 mpk, compared with vehicle), the “change of systemic blood glucose level during clamp” value is “comparable and slower”; the “glucose infusion rate needed to maintain blood glucose at 50 mg/dl” value is “comparable and slower”. In addition, in the assay with male Wistar Han rats (10 mpk), the “systemic epinephrine release at hypoglycemic status” value is recorded as “only slightly altered” and the c-peptide release entry was “indistinguishable from vehicle control”. Further, the “blood glucagon secretion at hypoglycemic status” value (from here on “blood glucagon secretion”) in the assay on male Wistar Han rats (10 mpk, blood glucose dropping to 50 mg/dL, 15-60 minutes, FIGS. 7A-B) is on record as “significantly elevated”.

With `CS(=O)(=O)c1ccc(OCC[C@@H]2C[C@@H]2C2CCN(c3ncc(Cl)cn3)CC2)nc1` [Compound C], the “blood glucagon secretion” value in the assay with male Wistar Han rats (setting [3]) is recorded as “significantly elevated”.

Turning to `COc1c(Nc2ccc(S(C)(=O)=O)nc2C)ncnc1OC1CCN(C(=O)OC(C)C)CC1` [Compound F], in the assay with male Wistar Han rats (setting [4]), the “blood glucagon secretion” value was “significantly elevated”.

As to `CCc1cnc(N2CCC(c3nc(COc4ccc(-n5cnnn5)cc4)cs3)CC2)nc1` [Compound H], in the assay with male Wistar Han rats (setting [4]), the “blood glucagon secretion” value is given as “significantly elevated”.

`C[S+]([O-])c1ccc(OCCCC2CCN(C(=O)OC(C)(C)C)CC2)cc1F` (centres unmarked) [Compound I]: in the assay with male Wistar Han rats (setting [4]), the “blood glucagon secretion” value is on record as “significantly elevated”.

`COCc1noc(N2CCC([C@H]3C[C@H]3CCOc3ccc(S(C)(=O)=O)c(F)c3)CC2)n1` [Compound M]: in the assay with male Wistar Han rats (setting [3]), the “blood glucagon secretion” value was “significantly elevated”.

`CCc1noc(N2CCC([C@H]3C[C@H]3CCOc3ccc(S(C)(=O)=O)cn3)CC2)n1` [Compound V]: the “blood glucagon secretion” value with male Wistar Han rats (setting [3]) was “significantly elevated”.

Take `COc1ccc(Cl)cc1C(=O)NCCc1ccc(S(=O)(=O)NC(=O)NC2CCCCC2)cc1` [GLIBENCLAMIDE, glibenclamide, reference compound]: in the assay with male Wistar Han rats (5 mpk), the “change of systemic blood glucose level during clamp” value was “rapidly decreases blood glucose level”, the “glucose infusion rate needed to maintain blood glucose at 50 mg/dl” value is “requires much faster glucose infusion rate”, the “systemic epinephrine release at hypoglycemic status” value was “inhibited this elevation” and the c-peptide release result was “promotes c-peptide release”. Also, the “blood glucagon secretion” value with male Wistar Han rats (5 mpk, blood glucose dropping to 50 mg/dL, 15-60 minutes, FIGS. 7A-B) is reported as “suppressed glucagon secretion”.
